What was measured:
[1] = test system: moderate to severe pain following dental surgery; test: Dose ranging clinical study of morphine 30, 60, 90 mg alone or with NTX 0.1 mg; assay type: in vivo, human; conditions: 30 mg, 60 mg and 90 mg MS alone compared with each other
Protocol: In this dose ranging study, doses of morphine sulfate (30 mg, 60 mg, and 90 mg) in combination with naltrexone hydrochloride (0.1 mg) were administered for moderate to severe pain in male patients following dental surgery. This study was performed to investigate the efficacy of combinations of different doses of morphine with naltrexone 0.1 mg, relative to placebo and relative to morphine alone, to evaluate the dose-response effects of morphine when administered alone and when coadministered with naltrexone 0.1 mg, and to examine the consistency of effect of naltrexone 0.1 mg across different doses of morphine, when coadministered with morphine.
The 210 subject study was designed with seven treatment groups: A) placebo (30 pts); B) morphine 30 mg (30 pts); C) morphine 60 mg (30 pts); D) morphine 90 mg (30 pts); E) morphine 30 mg and naltrexone 0.1 mg (30 pts); F) morphine 60 mg and naltrexone 0.1 mg (30 pts); G) morphine 90 mg and naltrexone 0.1 mg (30 pts). In this study, in the treatment of moderate to severe pain following extraction of 3 or 4 full or partial bony impacted third molars, a single oral dose of one of the treatments was administered when the patient was suffering moderate to severe postoperative pain. The observation period for efficacy was 8 hours post treatment and for safety was 24 hours post treatment. […]

[2] = Binding of drug in solution to pharmaceutical excipients
postsurgical patients = conditions: PCA/IV morphine with low dose IV antagonist; cited from earlier work
[3] = test system: moderate to severe pain following dental surgery; test: Dose ranging clinical study of morphine 60 mg with NTX 0.1, 0.01 or 0.001 mg, and NTX alone; assay type: in vivo, human; conditions: NTX 0.01 mg alone, among treatment groups
Protocol: In a dose ranging study, doses of morphine sulfate (60 mg) in combination with naltrexone hydrochloride (0.1 mg, 0.01 mg, or 0.001 mg) were administered for moderate to severe pain in patients following dental surgery. This study was performed to investigate the analgesic efficacy (onset, peak, duration, and total effect) of morphine alone, naltrexone alone, three different doses of naltrexone in combination with morphine and placebo.
The 300 subject study was designed with six treatment groups: A) placebo (50 pts); B) morphine 60 mg (50 pts); C) naltrexone 0.01 mg (50 pts); D) morphine 60 mg and naltrexone 0.1 mg (50 pts); E) morphine 60 mg and naltrexone 0.01 mg (50 pts); F) morphine 60 mg and naltrexone 0.001 mg (50 pts). In this study, in the treatment of moderate to severe pain following extraction of 3 or 4 full or partial bony impacted third molars, a single oral dose of one of the treatments was administered when the patient was suffering moderate to severe postoperative pain. The observation period for efficacy was 8 hours post treatment, and for safety was 24 hours post treatment.
The efficacy and safety evaluations included pain intensity, pain relief, global pain evaluation, evaluation of time to meaningful pain relief (stopwatch), visual analog scale (VAS), and adverse event assessments. For the data analysis, certain pain parameters were computed as generally described above.

[4] = test system: excitatory opioid receptors; conditions: mice, antagonist on the order of ng/kg with morphine or similar opioid agonists; cited from earlier work
[5] = excipients of Example 10, aqueous environment
[6] = excipients of Example 12, aqueous environment

For `CN1CC[C@]23c4c5ccc(O)c4O[C@H]2[C@@H](O)C=C[C@H]3[C@H]1C5.O=S(=O)(O)O` [MS, morphine sulfate], the “mean SPID scores” value [1] was “comparable”, the “mean Total Pain Relief scores” value [1] was “comparable” and the “binding to croscarmellose sodium” value ([2]; croscarmellose sodium) was “also bound to this excipient”. For the same molecule, the “binding by the excipients used” value [2, 5] was “not to bind” and the “binding by the excipients used” value [2, 6] was “not to bind”.
In the case of `C=CCN1CC[C@]23c4c5ccc(O)c4O[C@H]2C(=O)CC[C@@]3(O)[C@H]1C5` [naloxone, 4,5-epoxy-3,14-dihydroxy-17-(2-prophenyl)morphinan-6-one], the “effect on potency of morphine” value (postsurgical patients) is listed as “markedly enhanced potency of morphine”.
With `Cl.O=C1CC[C@@]2(O)[C@H]3Cc4ccc(O)c5c4[C@@]2(CCN3CC2CC2)[C@H]1O5` [naltrexone hydrochloride, 17-cyclopropylmethyl-4,5α-epoxy-3,14-dihydroxymorphinan-6-one hydrochloride] the global evaluation scores [3] was “highest number of subjects who had “poor” global evaluation scores”, the “mean 4 hour Sum of Pain Intensity Difference (SPID) scores” value [3] was “lowest” and the “mean Total Pain Relief scores” value [3] was “lowest”. The “effect on analgesic potency of opioid agonists” value [4] was “markedly enhancing the analgesic potency of opioid agonists”, the “fraction of drug bound by croscarmellose sodium” value ([2]; drug in solution mixed with croscarmellose sodium in suspension) was “more than 90%” and the “binding by the excipients used” value [2, 5] was “not to bind”. For the same molecule, the “binding by the excipients used” value [2, 6] was “not to bind”.
In the case of `C=C1CC[C@@]2(O)[C@H]3Cc4ccc(O)c5c4[C@@]2(CCN3CC2CC2)[C@H]1O5` [nalmefene, 6-methylene-6-desoxy-N-cyclopropyl-methyl-14-hydroxydihydroxy-dihydronormorphine], the “effect on potency of morphine” value (postsurgical patients) is listed as “markedly enhanced potency of morphine”.

Source: patent US20030191147A1, “Opioid antagonist compositions and dosage forms” (priority 2002, published 2003)
